pIC50: −log10 of the molar value.
Test system: Hepatitis B virus
Experiment: Antiviral activity against HBV infected in human HepG2-NTCP cells assessed as reduction in HBeAg secretion cells inoculated with virus for 4 hrs at room temperature and 37 degree C for 24 hrs followed inoculum changed with PMM medium for every 2 days until day 5 post infection by ELISA
Format: functional, organism-based

CC[C@@H]1NC(=O)[C@H]([C@@H]2OC(C(C)C)C[C@H]2C)N(C)C(=O)[C@H](C(C)C)N(C)C(=O)[C@H](CC(C)C)N(C)C(=O)[C@H](CC(C)C)N(C)C(=O)[C@@H](C)NC(=O)[C@H](C)NC(=O)[C@H](CC(C)C)N(C)C(=O)[C@H](C(C)C)NC(=O)[C@H](CC(C)C)N(C)C(=O)CN(C)C1=O (stereo not given in full)
pIC50: < 5.00

CC[C@@H]1NC(=O)[C@H]([C@@H]2O[C@@H](Sc3cccc(OCc4cccnc4)c3)C[C@H]2C)N(C)C(=O)[C@H](C(C)C)N(C)C(=O)[C@H](CC(C)C)N(C)C(=O)[C@H](CC(C)C)N(C)C(=O)[C@@H](C)NC(=O)[C@H](C)NC(=O)[C@H](CC(C)C)N(C)C(=O)[C@H](C(C)C)NC(=O)[C@H](CC(C)C)N(C)C(=O)CN(C)C1=O
pIC50: 6.57

CC[C@@H]1NC(=O)[C@H]([C@@H]2O[C@@H](Sc3cc(Cl)cc(OCc4ccc(F)cc4)c3)C[C@H]2C)N(C)C(=O)[C@H](C(C)C)N(C)C(=O)[C@H](CC(C)C)N(C)C(=O)[C@H](CC(C)C)N(C)C(=O)[C@@H](C)NC(=O)[C@H](C)NC(=O)[C@H](CC(C)C)N(C)C(=O)[C@H](C(C)C)NC(=O)[C@H](CC(C)C)N(C)C(=O)CN(C)C1=O
pIC50: 6.38

CC[C@@H]1NC(=O)[C@H]([C@@H]2O[C@H](Sc3ccccc3)C[C@H]2C)N(C)C(=O)[C@H](C(C)C)N(C)C(=O)[C@H](CC(C)C)N(C)C(=O)[C@H](CC(C)C)N(C)C(=O)[C@@H](C)NC(=O)[C@H](C)NC(=O)[C@H](CC(C)C)N(C)C(=O)[C@H](C(C)C)NC(=O)[C@H](CC(C)C)N(C)C(=O)CN(C)C1=O
pIC50: 5.27

CC[C@@H]1NC(=O)[C@H]([C@@H]2O[C@@H](Sc3cccc(O)c3)C[C@H]2C)N(C)C(=O)[C@H](C(C)C)N(C)C(=O)[C@H](CC(C)C)N(C)C(=O)[C@H](CC(C)C)N(C)C(=O)[C@@H](C)NC(=O)[C@H](C)NC(=O)[C@H](CC(C)C)N(C)C(=O)[C@H](C(C)C)NC(=O)[C@H](CC(C)C)N(C)C(=O)CN(C)C1=O
pIC50: 5.78

CC[C@@H]1NC(=O)[C@H]([C@@H]2O[C@@H](Sc3cccc(OCc4ccc(F)c(Cl)c4)c3)C[C@H]2C)N(C)C(=O)[C@H](C(C)C)N(C)C(=O)[C@H](CC(C)C)N(C)C(=O)[C@H](CC(C)C)N(C)C(=O)[C@@H](C)NC(=O)[C@H](C)NC(=O)[C@H](CC(C)C)N(C)C(=O)[C@H](C(C)C)NC(=O)[C@H](CC(C)C)N(C)C(=O)CN(C)C1=O
pIC50: 6.47

CC[C@@H]1NC(=O)[C@H]([C@@H]2O[C@@H](Oc3cc(OC)cc(OC)c3)C[C@H]2C)N(C)C(=O)[C@H](C(C)C)N(C)C(=O)[C@H](CC(C)C)N(C)C(=O)[C@H](CC(C)C)N(C)C(=O)[C@@H](C)NC(=O)[C@H](C)NC(=O)[C@H](CC(C)C)N(C)C(=O)[C@H](C(C)C)NC(=O)[C@H](CC(C)C)N(C)C(=O)CN(C)C1=O
pIC50: 6.16

CC[C@@H]1NC(=O)[C@H]([C@@H]2O[C@@H](Sc3cccc(OCc4ccccc4F)c3)C[C@H]2C)N(C)C(=O)[C@H](C(C)C)N(C)C(=O)[C@H](CC(C)C)N(C)C(=O)[C@H](CC(C)C)N(C)C(=O)[C@@H](C)NC(=O)[C@H](C)NC(=O)[C@H](CC(C)C)N(C)C(=O)[C@H](C(C)C)NC(=O)[C@H](CC(C)C)N(C)C(=O)CN(C)C1=O
pIC50: 6.50

CC[C@@H]1NC(=O)[C@H]([C@@H]2O[C@@H](Sc3ccc(N4CCOCC4)cc3)C[C@H]2C)N(C)C(=O)[C@H](C(C)C)N(C)C(=O)[C@H](CC(C)C)N(C)C(=O)[C@H](CC(C)C)N(C)C(=O)[C@@H](C)NC(=O)[C@H](C)NC(=O)[C@H](CC(C)C)N(C)C(=O)[C@H](C(C)C)NC(=O)[C@H](CC(C)C)N(C)C(=O)CN(C)C1=O
pIC50: 5.90

CC[C@@H]1NC(=O)[C@H]([C@@H]2OC(OCC(=O)OC)C[C@H]2C)N(C)C(=O)[C@H](C(C)C)N(C)C(=O)[C@H](CC(C)C)N(C)C(=O)[C@H](CC(C)C)N(C)C(=O)[C@@H](C)NC(=O)[C@H](C)NC(=O)[C@H](CC(C)C)N(C)C(=O)[C@H](C(C)C)NC(=O)[C@H](CC(C)C)N(C)C(=O)CN(C)C1=O (stereo not given in full)
pIC50: < 5.00

CC[C@@H]1NC(=O)[C@H]([C@@H]2O[C@@H](Sc3cccc(OCCc4ccccc4)c3)C[C@H]2C)N(C)C(=O)[C@H](C(C)C)N(C)C(=O)[C@H](CC(C)C)N(C)C(=O)[C@H](CC(C)C)N(C)C(=O)[C@@H](C)NC(=O)[C@H](C)NC(=O)[C@H](CC(C)C)N(C)C(=O)[C@H](C(C)C)NC(=O)[C@H](CC(C)C)N(C)C(=O)CN(C)C1=O
pIC50: 6.45

CC[C@@H]1NC(=O)C([C@@H]2OC(O)C[C@H]2C)N(C)C(=O)[C@H](C(C)C)N(C)C(=O)[C@H](CC(C)C)N(C)C(=O)[C@H](CC(C)C)N(C)C(=O)[C@@H](C)NC(=O)[C@H](C)NC(=O)[C@H](CC(C)C)N(C)C(=O)[C@H](C(C)C)NC(=O)[C@H](CC(C)C)N(C)C(=O)CN(C)C1=O (stereo not given in full)
pIC50: 4.92

CC[C@@H]1NC(=O)[C@H]([C@@H]2O[C@@H](Sc3cccc(OC(C)c4ccccc4)c3)C[C@H]2C)N(C)C(=O)[C@H](C(C)C)N(C)C(=O)[C@H](CC(C)C)N(C)C(=O)[C@H](CC(C)C)N(C)C(=O)[C@@H](C)NC(=O)[C@H](C)NC(=O)[C@H](CC(C)C)N(C)C(=O)[C@H](C(C)C)NC(=O)[C@H](CC(C)C)N(C)C(=O)CN(C)C1=O (stereo not given in full)
pIC50: 6.76

CC[C@@H]1NC(=O)[C@H]([C@@H]2O[C@H](Oc3cccc(OCc4ccccc4)c3)C[C@H]2C)N(C)C(=O)[C@H](C(C)C)N(C)C(=O)[C@H](CC(C)C)N(C)C(=O)[C@H](CC(C)C)N(C)C(=O)[C@@H](C)NC(=O)[C@H](C)NC(=O)[C@H](CC(C)C)N(C)C(=O)[C@H](C(C)C)NC(=O)[C@H](CC(C)C)N(C)C(=O)CN(C)C1=O
pIC50: 6.17

CC[C@@H]1NC(=O)[C@H]([C@@H]2O[C@@H](Sc3ccc(CN4CCN(C)CC4)cc3)C[C@H]2C)N(C)C(=O)[C@H](C(C)C)N(C)C(=O)[C@H](CC(C)C)N(C)C(=O)[C@H](CC(C)C)N(C)C(=O)[C@@H](C)NC(=O)[C@H](C)NC(=O)[C@H](CC(C)C)N(C)C(=O)[C@H](C(C)C)NC(=O)[C@H](CC(C)C)N(C)C(=O)CN(C)C1=O
pIC50: 5.81

CC[C@@H]1NC(=O)[C@H]([C@@H]2O[C@@H](Sc3c(OC)cccc3OC)C[C@H]2C)N(C)C(=O)[C@H](C(C)C)N(C)C(=O)[C@H](CC(C)C)N(C)C(=O)[C@H](CC(C)C)N(C)C(=O)[C@@H](C)NC(=O)[C@H](C)NC(=O)[C@H](CC(C)C)N(C)C(=O)[C@H](C(C)C)NC(=O)[C@H](CC(C)C)N(C)C(=O)CN(C)C1=O
pIC50: 5.66

CC[C@@H]1NC(=O)[C@H]([C@@H]2O[C@@H](Sc3cccc(OCc4ccccn4)c3)C[C@H]2C)N(C)C(=O)[C@H](C(C)C)N(C)C(=O)[C@H](CC(C)C)N(C)C(=O)[C@H](CC(C)C)N(C)C(=O)[C@@H](C)NC(=O)[C@H](C)NC(=O)[C@H](CC(C)C)N(C)C(=O)[C@H](C(C)C)NC(=O)[C@H](CC(C)C)N(C)C(=O)CN(C)C1=O
pIC50: 6.50

CC[C@@H]1NC(=O)[C@H]([C@@H]2OC(OCCC(=O)O)C[C@H]2C)N(C)C(=O)[C@H](C(C)C)N(C)C(=O)[C@H](CC(C)C)N(C)C(=O)[C@H](CC(C)C)N(C)C(=O)[C@@H](C)NC(=O)[C@H](C)NC(=O)[C@H](CC(C)C)N(C)C(=O)[C@H](C(C)C)NC(=O)[C@H](CC(C)C)N(C)C(=O)CN(C)C1=O (stereo not given in full)
pIC50: < 5.00

CC[C@@H]1NC(=O)[C@H]([C@@H]2O[C@@H](Sc3cccc(OCc4cccc(F)c4)c3)C[C@H]2C)N(C)C(=O)[C@H](C(C)C)N(C)C(=O)[C@H](CC(C)C)N(C)C(=O)[C@H](CC(C)C)N(C)C(=O)[C@@H](C)NC(=O)[C@H](C)NC(=O)[C@H](CC(C)C)N(C)C(=O)[C@H](C(C)C)NC(=O)[C@H](CC(C)C)N(C)C(=O)CN(C)C1=O
pIC50: 6.71

CC[C@@H]1NC(=O)[C@H]([C@@H]2OC(OC)C[C@H]2C)N(C)C(=O)[C@H](C(C)C)N(C)C(=O)[C@H](CC(C)C)N(C)C(=O)[C@H](CC(C)C)N(C)C(=O)[C@@H](C)NC(=O)[C@H](C)NC(=O)[C@H](CC(C)C)N(C)C(=O)[C@H](C(C)C)NC(=O)[C@H](CC(C)C)N(C)C(=O)CN(C)C1=O (stereo not given in full)
pIC50: 4.87

CC[C@@H]1NC(=O)[C@H]([C@@H]2O[C@@H](Sc3cccc(OC)c3)C[C@H]2C)N(C)C(=O)[C@H](C(C)C)N(C)C(=O)[C@H](CC(C)C)N(C)C(=O)[C@H](CC(C)C)N(C)C(=O)[C@@H](C)NC(=O)[C@H](C)NC(=O)[C@H](CC(C)C)N(C)C(=O)[C@H](C(C)C)NC(=O)[C@H](CC(C)C)N(C)C(=O)CN(C)C1=O
pIC50: 6.28

CC[C@@H]1NC(=O)[C@H]([C@@H]2O[C@@H](Sc3ccc(Cl)c(OCc4ccccc4)c3)C[C@H]2C)N(C)C(=O)[C@H](C(C)C)N(C)C(=O)[C@H](CC(C)C)N(C)C(=O)[C@H](CC(C)C)N(C)C(=O)[C@@H](C)NC(=O)[C@H](C)NC(=O)[C@H](CC(C)C)N(C)C(=O)[C@H](C(C)C)NC(=O)[C@H](CC(C)C)N(C)C(=O)CN(C)C1=O
pIC50: 6.67

CC[C@@H]1NC(=O)[C@H]([C@@H]2O[C@@H](Sc3cccc(OCc4ccc(=O)n(C)c4)c3)C[C@H]2C)N(C)C(=O)[C@H](C(C)C)N(C)C(=O)[C@H](CC(C)C)N(C)C(=O)[C@H](CC(C)C)N(C)C(=O)[C@@H](C)NC(=O)[C@H](C)NC(=O)[C@H](CC(C)C)N(C)C(=O)[C@H](C(C)C)NC(=O)[C@H](CC(C)C)N(C)C(=O)CN(C)C1=O
pIC50: 6.32

CC[C@@H]1NC(=O)[C@H]([C@@H]2OCC[C@H]2C)N(C)C(=O)[C@H](C(C)C)N(C)C(=O)[C@H](CC(C)C)N(C)C(=O)[C@H](CC(C)C)N(C)C(=O)[C@@H](C)NC(=O)[C@H](C)NC(=O)[C@H](CC(C)C)N(C)C(=O)[C@H](C(C)C)NC(=O)[C@H](CC(C)C)N(C)C(=O)CN(C)C1=O
pIC50: < 5.00

CC[C@@H]1NC(=O)[C@H]([C@@H]2O[C@@H](Sc3cccc(OCc4ccc(F)cc4Cl)c3)C[C@H]2C)N(C)C(=O)[C@H](C(C)C)N(C)C(=O)[C@H](CC(C)C)N(C)C(=O)[C@H](CC(C)C)N(C)C(=O)[C@@H](C)NC(=O)[C@H](C)NC(=O)[C@H](CC(C)C)N(C)C(=O)[C@H](C(C)C)NC(=O)[C@H](CC(C)C)N(C)C(=O)CN(C)C1=O
pIC50: 6.39

From ChEMBL document CHEMBL4706643 (J Med Chem, 2021)
